In US11375708B2, “Methods and apparatus for management of mosquito populations with habitat sharing heterospecific insects carrying insect growth regulators” (Rutgers, The State University of New Jersey, priority 2015, dated 2022):

Tested on: Aedes albopictus
Assay: Room (30 m^3) release of 20 treated Chironomus against 10 sentinel cups, mosquito pupal mortality
Type: in vivo
Conditions: 20 treated Chironomus released in 30 m^3 room, 2 days (48 hour exposure), 10 cups each with 250 ml oak infusion
From the text: FIG. 2. Mosquito pupal mortality achieved by releasing oil treated 20 Chironomus adults in a 30 m^3 room for 2 days against 10 sentinel cups. The average pupal mortality of Aedes albopictus was 88±3.5%.
Chironomus females don't need blood feeding and the larvae are easy to culture. […] The larvae developed in cryptic sentinel cups indicated the treated female has visited the cup and laid eggs. In the same cup, pupal mortality of Aedes albpictus indicated the pyriproxyfen transfer (FIG. 5). We further challenged the technology in a meshed tunnel (50×3×2 m) setup in the field with 10 cryptic sentinel cups inside (FIG. 7) by releasing 50 treated C. decorus females for 5 days. […] The backyard experiment was conducted by treating 800 chironomid adults with oil formulation (20% a.i) first and followed with powder formulation (60% a.i) at a separate location to avoid contamination. In this experiment, the active ingredient (a.i.) was pyriproxyfen. In order to avoid any dew effect, release time was in the afternoon between 2 to 5 pm. […]
Adults (males and females) of C. decorus (0 to 2 days old) will be collected and stored in a cage constructed with metal window screen. […] The cage with contaminated Chironomus then will be removed from the bottom of the chamber and ready for release in cases where only oil treatment is desired. […]

CC(COc1ccc(Oc2ccccc2)cc1)Oc1ccccn1 (stereo not shown) [pyriproxyfen]
average pupal mortality of Aedes albopictus: 88.5±3.5%
